The values below come from patent publication US11046680B1, “Heteroaryl-substituted triazoles as APJ receptor agonists” (priority 2016, dated 2021).

In this test the target is human APJ receptor (Homo sapiens (Human), UniProt P35414). In words: biochemical. The test is classed as biochemical. The following applies: [35S]GTPγS binding, CHO membranes expressing human APJ receptor; read-out: Activity hAPJ SPA EC50 IP. The method, boiled down: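 Membranes of a stable CHO line carrying human APJ (pFLAG-CMV-3) were used in a GTPγS binding format; buffer GDP, MgCl2 and NaCl were optimized, and plates were read after 90 min at RT.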
On the technique in general: GTPγS resists hydrolysis and so accumulates on activated G proteins.

human APJ receptor, sequence (P35414 whole entry): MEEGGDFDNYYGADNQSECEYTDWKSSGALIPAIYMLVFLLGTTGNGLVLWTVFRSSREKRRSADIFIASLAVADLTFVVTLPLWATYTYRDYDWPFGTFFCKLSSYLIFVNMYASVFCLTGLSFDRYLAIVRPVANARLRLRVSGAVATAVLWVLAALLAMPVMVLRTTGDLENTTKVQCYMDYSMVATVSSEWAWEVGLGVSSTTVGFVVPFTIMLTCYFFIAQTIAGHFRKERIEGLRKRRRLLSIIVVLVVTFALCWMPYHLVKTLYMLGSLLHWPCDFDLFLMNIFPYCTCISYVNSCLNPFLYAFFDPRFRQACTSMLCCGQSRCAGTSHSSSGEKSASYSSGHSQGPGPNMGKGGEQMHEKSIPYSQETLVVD

As usually defined, the EC50 is the concentration giving half of the maximal effect. On to `COc1ncnc(OC)c1-n1c(NS(=O)(=O)[C@@H](C)[C@H](OC)c2ncc(C)cn2)nnc1-c1nc(C2CC2)cs1` [Example 4.0, (1R,2S)-N-(5-(4-cyclopropylthiazol-2-yl)-4-(4,6-dimethoxypyrimidin-5-yl)-4H-1,2,4-triazol-3-yl)-1-methoxy-1-(5-methylpyrimidin-2-yl)propane-2-sulfonamide], for which the EC50 came out at 0.92 nM. Turning to `COc1cccc(OC)c1-n1c(NS(=O)(=O)[C@H](C)[C@H](O)c2ncc(C)cn2)nnc1-c1nc(C)cs1` (single isomer, unassigned) [Example 314.0, (1R,2R)-N-(4-(2,6-dimethoxyphenyl)-5-(4-methylthiazol-2-yl)-4H-1,2,4-triazol-3-yl)-1-hydroxy-1-(5-methylpyrimidin-2-yl)propane-2-sulfonamide or (1S,2S)-N-(4-(2,6-dimethoxyphenyl)-5-(4-methylthiazol-2-yl)-4H-1,2,4-triazol-3-yl)-1-hydroxy-1-(5-methylpyrimidin-2-yl)propane-2-sulfonamide], the EC50 amounted to 14 nM. `CCc1csc(-c2nnc(NS(=O)(=O)[C@H](C)Cc3ncc(F)cn3)n2-c2c(OC)cccc2OC)n1` (single isomer, unassigned) [Example 105.0, (R)-N-(4-(2,6-dimethoxyphenyl)-5-(4-ethylthiazol-2-yl)-4H-1,2,4-triazol-3-yl)-1-(5-fluoropyrimidin-2-yl)propane-2-sulfonamide or (S)-N-(4-(2,6-dimethoxyphenyl)-5-(4-ethylthiazol-2-yl)-4H-1,2,4-triazol-3-yl)-1-(5-fluoropyrimidin-2-yl)propane-2-sulfonamide]: the EC50 worked out at 1.4 nM. As for `CCO[C@@H](c1ncc(Cl)cn1)[C@H](C)S(=O)(=O)Nc1nnc(-c2ccn(C)n2)n1-c1c(OC)cccc1OC` (single isomer, unassigned) [Example 352.0, (1S,2S)-1-(5-chloropyrimidin-2-yl)-N-(4-(2,6-dimethoxyphenyl)-5-(1-methyl-1H-pyrazol-3-yl)-4H-1,2,4-triazol-3-yl)-1-ethoxypropane-2-sulfonamide or (1R,2R)-1-(5-chloropyrimidin-2-yl)-N-(4-(2,6-dimethoxyphenyl)-5-(1-methyl-1H-pyrazol-3-yl)-4H-1,2,4-triazol-3-yl)-1-ethoxypropane-2-sulfonamide], the figure is 35 nM; as for `COc1cccc(OC)c1-n1c(NS(=O)(=O)CCc2ccc(F)cc2Br)nnc1-c1nccs1` [Example 140.0, 2-(2-bromo-4-fluorophenyl)-N-(4-(2,6-dimethoxyphenyl)-5-(thiazol-2-yl)-4H-1,2,4-triazol-3-yl)ethanesulfonamide], 24.5 nM; as for `COc1cccc(OC)c1-n1c(NS(=O)(=O)CCc2ccc(Cl)cc2)nnc1-c1cocn1` [Example 139.0, 2-(4-chlorophenyl)-N-(4-(2,6-dimethoxyphenyl)-5-(oxazol-4-yl)-4H-1,2,4-triazol-3-yl)ethanesulfonamide], 118 nM. Take `O=S(=O)(Cc1ccc(Cl)cc1)Nc1nnc(-c2cccs2)n1-c1ccccc1C(F)(F)F` [Example 356.0, 1-(4-Chlorophenyl)-N-(5-(thiophen-2-yl)-4-(2-(trifluoromethyl)phenyl)-4H-1,2,4-triazol-3-yl)methanesulfonamide]: the EC50 is above 12500 nM. On to `COCC(COC)n1c(NS(=O)(=O)[C@@H](C)[C@H](C)c2ncc(Cl)cn2)nnc1-c1nn(C)c2ccc(C)cc12` [Example 448.0, (2S,3R)-3-(5-chloropyrimidin-2-yl)-N-(4-(1,3-dimethoxypropan-2-yl)-5-(1,5-dimethyl-1H-indazol-3-yl)-4H-1,2,4-triazol-3-yl)butane-2-sulfonamide], for which the EC50 was 10 nM. As for `COc1cccc(OC)c1-n1c(NS(=O)(=O)C[C@H](OC)c2ccc(F)cc2S(C)(=O)=O)nnc1-c1ccn(C)n1` (single isomer, unassigned) [Example 373.0, (R)-N-(4-(2,6-Dimethoxyphenyl)-5-(1-methyl-1H-pyrazol-3-yl)-4H-1,2,4-triazol-3-yl)-2-(4-fluoro-2-(methylsulfonyl)phenyl)-2-methoxyethanesulfonamide or (S)-N-(4-(2,6-dimethoxyphenyl)-5-(1-methyl-1H-pyrazol-3-yl)-4H-1,2,4-triazol-3-yl)-2-(4-fluoro-2-(methylsulfonyl)phenyl)-2-methoxyethanesulfonamide], the figure is 1.3 nM; as for `COc1cccc(OC)c1-n1c(NS(=O)(=O)[C@@H](C)[C@H](C)c2ncc(F)cn2)nnc1-c1cc(C)[nH]n1` [Example 268.0, (2S,3R)-N-(4-(2,6-dimethoxyphenyl)-5-(5-methyl-1H-pyrazol-3-yl)-4H-1,2,4-triazol-3-yl)-3-(5-fluoro-2-pyrimidinyl)-2-butanesulfonamide], 0.68 nM. For “(2R,3S)-N-(4-(2,6-dimethoxyphenyl)-5-(1-methyl-1H-pyrazol-3-yl)-4H-1,2,4-triazol-3-yl)-3-(5-methyl-1-oxido-2-pyrazinyl)-2-butanesulfonamide and (2S,3R)-N-(4-(2,6-dimethoxyphenyl)-5-(1-methyl-1H-pyrazol-3-yl)-4H-1,2,4-triazol-3-yl)-3-(5-methyl-1-oxido-2-pyrazinyl)-2-butanesulfonamide [Example 280.0]”, the EC50 amounted to 3.5 nM. Under `COc1ncnc(OC)c1-n1c(NS(=O)(=O)[C@@H](C)[C@H](C)c2ncc(Cl)cn2)nnc1-c1cnn2ccccc12` [Example 440.0, (2S,3R)-3-(5-chloropyrimidin-2-yl)-N-(4-(4,6-dimethoxypyrimidin-5-yl)-5-(pyrazolo[1,5-a]pyridin-3-yl)-4H-1,2,4-triazol-3-yl)butane-2-sulfonamide] stands 0.96 nM; under `COCC1(n2c(NS(=O)(=O)[C@@H](C)[C@H](OC)c3ncc(Cl)cn3)nnc2-c2n[nH]c3c2CCC3)CCC1` [Example 489.0], 1.3 nM; under `COc1cccc(OC)c1-n1c(NS(=O)(=O)[C@H](C)[C@@H](OC)c2ccc(C#N)cc2C#N)nnc1-c1ccn(C)n1` (single isomer, unassigned) [Example 265.0, (1S,2R)-1-(2,4-dicyanophenyl)-N-(4-(2,6-dimethoxyphenyl)-5-(1-methyl-1H-pyrazol-3-yl)-4H-1,2,4-triazol-3-yl)-1-methoxy-2-propanesulfonamide or (1R,2S)-1-(2,4-dicyanophenyl)-N-(4-(2,6-dimethoxyphenyl)-5-(1-methyl-1H-pyrazol-3-yl)-4H-1,2,4-triazol-3-yl)-1-methoxy-2-propanesulfonamide], 70 nM. As for `CCS(=O)(=O)Nc1nnc(-c2ccn(C)n2)n1-c1c(OC)cccc1OC` [Example 267.0, N-(4-(2,6-dimethoxyphenyl)-5-(1-methyl-1H-pyrazol-3-yl)-4H-1,2,4-triazol-3-yl)ethanesulfonamide], the figure is 82 nM; as for `CCc1csc(-c2nnc(NS(=O)(=O)[C@H](C)Cc3ncc(F)cn3)n2-c2c(OC)cccc2OC)n1` [Example 106.0], 21 nM; as for `COc1ncnc(OC)c1-n1c(NS(=O)(=O)[C@@H](C)[C@H](C)c2ncc(Cl)cn2)nnc1-c1n[nH]c2ccccc12` [Example 426.0, (2S,3R)-3-(5-chloropyrimidin-2-yl)-N-(4-(4,6-dimethoxypyrimidin-5-yl)-5-(1H-indazol-3-yl)-4H-1,2,4-triazol-3-yl)butane-2-sulfonamide], 14 nM. Turning to “(2S)-N-(4-(2,6-dimethoxyphenyl)-5-(6-methoxy-2-pyrazinyl)-4H-1,2,4-triazol-3-yl)-1-(5-fluoro-2-pyrimidinyl)-2-propanesulfonamide and (2R)-N-(4-(2,6-dimethoxyphenyl)-5-(6-methoxy-2-pyrazinyl)-4H-1,2,4-triazol-3-yl)-1-(5-fluoro-2-pyrimidinyl)-2-propanesulfonamide [Example 177.0]”, the EC50 is 4.5 nM. As for `COc1cccc(OC)c1-n1c(NS(=O)(=O)[C@H](C)Cc2ncc(F)cn2)nnc1-c1nc(C(C)C)cs1` (single isomer, unassigned) [Example 158.0, (R)-N-(4-(2,6-dimethoxyphenyl)-5-(4-isopropylthiazol-2-yl)-4H-1,2,4-triazol-3-yl)-1-(5-fluoropyrimidin-2-yl)propane-2-sulfonamide or (S)-N-(4-(2,6-dimethoxyphenyl)-5-(4-isopropylthiazol-2-yl)-4H-1,2,4-triazol-3-yl)-1-(5-fluoropyrimidin-2-yl)propane-2-sulfonamide], the figure is 4.1 nM; as for `COc1ccc(Cl)cc1-n1c(NS(=O)(=O)CCc2ccc(F)cc2)nnc1-c1cccs1` [Example 360.0, N-(4-(5-Chloro-2-methoxyphenyl)-5-(thiophen-2-yl)-4H-1,2,4-triazol-3-yl)-2-(4-fluorophenyl)ethanesulfonamide], 194 nM; as for `COc1cccc(OC)c1-n1c(NS(=O)(=O)[C@@H](C)[C@H](OC)c2ncc(C)cn2)nnc1-c1cc(C)[nH]n1` [Example 333.0, (1R,2S)-N-(4-(2,6-dimethoxyphenyl)-5-(5-methyl-1H-pyrazol-3-yl)-4H-1,2,4-triazol-3-yl)-1-methoxy-1-(5-methyl-2-pyrimidinyl)-2-propanesulfonamide], 1.5 nM.

Regarding `COc1cccc(OC)c1-n1c(NS(=O)(=O)[C@H](C)[C@@H](OC)c2ncc(F)cn2)nnc1-c1ccn(C)n1` (single isomer, unassigned) [Example 118.0, (1S,2R)-N-(4-(2,6-dimethoxyphenyl)-5-(1-methyl-1H-pyrazol-3-yl)-4H-1,2,4-triazol-3-yl)-1-(5-fluoropyrimidin-2-yl)-1-methoxypropane-2-sulfonamide or (1R,2S)-N-(4-(2,6-dimethoxyphenyl)-5-(1-methyl-1H-pyrazol-3-yl)-4H-1,2,4-triazol-3-yl)-1-(5-fluoropyrimidin-2-yl)-1-methoxypropane-2-sulfonamide], the EC50 worked out at 100 nM.

In the case of `COc1ccc(N2CCOCC2=O)cc1-n1c(NS(=O)(=O)CCc2ccc(Cl)cc2)nnc1-c1cccs1` [Example 127.0, 2-(4-Chlorophenyl)-N-(4-(2-methoxy-5-(3-oxo-4-morpholinyl)phenyl)-5-(2-thiophenyl)-4H-1,2,4-triazol-3-yl)ethanesulfonamide], the EC50 amounted to 300 nM.
